Measured values taken from patent US20230126447A1, “OCULAR DRUG DEPOT FOR COMPLEMENT-MEDIATED DISORDERS” (priority 2020, published 2023).
Read-outs that look alike come from different tables or passages of the source.

Test: Ocular tissue distribution and pharmacokinetics, 7.5 and 15 mg/kg oral, pigmented Dutch Belted rabbits (Example 7)
Assay type: in vivo
Procedure: For Group 1, two animals/time point were sacrificed via an overdose of sodium pentobarbital at approximately 1, 6, 12, 24, 96, 168, and 240 hours postdose. Blood (approximately 2 mL) was collected from all animals at sacrifice into tubes containing K2EDTA via exsanguination (cardiac puncture).
For Groups 2 through 4, blood (approximately 2 mL) was collected via a jugular vein using a syringe and needle and was transferred into tubes containing K2EDTA at approximately 12 hours after the a.m. dose on Day 15 from the two animals designated for sacrifice at approximately 240 hours after the a.m. dose on Day 15.
For Groups 2 through 4, two animals/group/time point were sacrificed via an overdose of sodium pentobarbital prior to dosing on Day 15 and at approximately 1, 6, 24, 96, 168, and 240 hours after the a.m. dose on Day 15. Blood (approximately 2 mL) was collected from all animals at sacrifice into tubes containing K2EDTA via exsanguination (cardiac puncture).
Blood was maintained on wet ice, in chilled cryoracks, or at approximately 5° C. prior to centrifugation to obtain plasma. Centrifugation began within 1 hour of collection (Deviation). Plasma was placed into 96-well tubes with barcode labels. Plasma was maintained on dry ice prior to storage at approximately −70° C.
At the time of sacrifice, both eyes were enucleated, and the following tissues were collected. Each eye was flash-frozen in liquid nitrogen for 15 to 20 seconds. The enucleated eye was placed on dry ice or stored at approximately −70° C. for at least 2 hours. Within approximately 3 days, the frozen matrices were collected as right and left eyes for each matrix into the specific tube type listed.
At the time of frozen collection, the ocular tissues were rinsed with saline and blotted dry (as appropriate), weighed, and placed on dry ice. All ocular tissues were collected as single samples.

[1] = Dutch Belted, rabbit, Retina (OU), male DB rabbits, Group 1, Day 1, 7.5 mg/kg single oral dose
[2] = Dutch Belted, rabbit, plasma, male DB rabbits, Group 1, Day 1, 7.5 mg/kg single oral dose
[3] = ICB (OU), male DB rabbits, Group 1, Day 1, […] single oral dose
[4] = ICB (OU), male DB rabbits, Group 2, Day 15, […] BID oral (15 mg/kg/day)
[5] = ICB (OU), male DB rabbits, Group 3, Day 15, 15 mg/kg/dose BID oral (30 mg/kg/day)
[6] = Retina (OU), male DB rabbits, Group 1, Day 1, […] single oral dose
[7] = Retina (OU), male DB rabbits, Group 2, Day 15, […] BID oral (15 mg/kg/day)
[8] = Retina (OU), male DB rabbits, Group 3, Day 15, 15 mg/kg/dose BID oral (30 mg/kg/day)
[9] = male, Dutch Belted, rabbit, choroid-retinal pigment epithelium (choroid-RPE), po, 15 mg/kg, Choroid-RPE (OU), male DB rabbits, Group 3, Day 15, 15 mg/kg/dose BID oral (30 mg/kg/day)
[10] = male, Dutch Belted, rabbit, plasma, po, 15 mg/kg, plasma, male DB rabbits, Group 3, Day 15, 15 mg/kg/dose BID oral (30 mg/kg/day)
[11] = male, Dutch Belted, rabbit, plasma, po, […], plasma, male DB rabbits, Group 1, Day 1, […] single oral dose
[12] = male, Dutch Belted, rabbit, plasma, po, […], plasma, male DB rabbits, Group 2, Day 15, […] BID oral (15 mg/kg/day)
[13] = plasma, male DB rabbits, Group 1, Day 1, […] single oral dose
[14] = plasma, male DB rabbits, Group 2, Day 15, […] BID oral (15 mg/kg/day)
[15] = plasma, male DB rabbits, Group 3, Day 15, 15 mg/kg/dose BID oral (30 mg/kg/day)

Structure (SMILES): CC(=O)c1nn(CC(=O)N2C[C@H](F)C[C@H]2C(=O)Nc2cccc(Br)n2)c2ccc(-c3cnc(C)nc3)cc12 [Compound 1, (2S,4R)-1-(2-(3-Acetyl-5-(2-methylpyrimidin-5-yl)-1H-indazol-1-yl)acetyl)-N-(6-bromopyridin-2-yl)-4-fluoropyrrolidine-2-carboxamide]
- MRT last [1]: 2.7 h
- Tmax [1]: 1 h
- Tmax (Dutch Belted, rabbit, Retina (OU), male DB rabbits, Group 3, Day 15, 15 mg/kg/dose BID oral (30 mg/kg/day)): 1 h
- MRT last [2]: 2.67 h
- Tmax [2]: 1 h
- AUC(0-inf) (Dutch Belted, rabbit, plasma, male DB rabbits, Group 1, Day 1, 7.5 mg/kg single oral dose, read-out: AUC0-inf): 1590 ng·h/mL
- Tmax (Dutch Belted, rabbit, plasma, male DB rabbits, Group 3, Day 15, 15 mg/kg/dose BID oral (30 mg/kg/day)): 1 h
- AUC0-12 [3]: 2560 ng·h/g
- AUC(0-24) [3]: 3460 ng·h/g
- AUC(0-t) [3]: 3460 ng·h/g
- Ctrough [3]: 119 ng/g
- DN AUC0-12 [3]: 341 (h*ng/g)/(mg/kg/dose)
- DN AUC0-24 [3]: 462 (h*ng/g)/(mg/kg/day)
- DN Cmax [3]: 57.9 (ng/g)/(mg/kg/day)
- AUC0-12 [4]: 7860 ng·h/g
- AUC(0-24) [4]: 11900 ng·h/g
- AUC(0-t) [4]: 11900 ng·h/g
- Ctrough [4]: 484 ng/g
- DN AUC0-12 [4]: 1050 (h*ng/g)/(mg/kg/dose)
- DN AUC0-24 [4]: 1580 (h*ng/g)/(mg/kg/day)
- DN Cmax [4]: 126 (ng/g)/(mg/kg/day)
- AUC0-12 [5]: 13900 ng·h/g
- AUC(0-24) [5]: 21300 ng·h/g
- AUC(0-t) [5]: 21300 ng·h/g
- Ctrough [5]: 780 ng/g
- DN AUC0-12 [5]: 925 (h*ng/g)/(mg/kg/dose)
- DN AUC0-24 [5]: 1420 (h*ng/g)/(mg/kg/day)
- DN Cmax [5]: 136 (ng/g)/(mg/kg/day)
- AUC0-12 [6]: 765 ng·h/g
- AUC0-240 [6]: 864 ng·h/g
- AUC(0-24) [6]: 864 ng·h/g
- AUC(0-t) [6]: 765 ng·h/g
- Ctrough [6]: 16.5 ng/g
- DN AUC0-12 [6]: 102 (h*ng/g)/(mg/kg/dose)
- DN AUC0-24 [6]: 115 (h*ng/g)/(mg/kg/day)
- DN Cmax [6]: 25.1 (ng/g)/(mg/kg/day)
- AUC0-12 [7]: 1710 ng·h/g
- AUC0-240 [7]: 6070 ng·h/g
- AUC(0-24) [7]: 2450 ng·h/g
- AUC(0-t) [7]: 6070 ng·h/g
- Ctrough [7]: 80.0 ng/g
- DN AUC0-12 [7]: 227 (h*ng/g)/(mg/kg/dose)
- DN AUC0-24 [7]: 327 (h*ng/g)/(mg/kg/day)
- DN Cmax [7]: 40.8 (ng/g)/(mg/kg/day)
- AUC0-12 [8]: 11500 ng·h/g
- AUC0-240 [8]: 16100 ng·h/g
- AUC(0-24) [8]: 6460 ng·h/g
- AUC(0-t) [8]: 16100 ng·h/g
- Ctrough [8]: 123 ng/g
- DN AUC0-12 [8]: 325 (h*ng/g)/(mg/kg/dose)
- DN AUC0-24 [8]: 430 (h*ng/g)/(mg/kg/day)
- DN Cmax [8]: 85.7 (ng/g)/(mg/kg/day)
- Cmax (male, Dutch Belted, rabbit, choroid-RPE (choroid-retinal pigment epithelium), po, […], Choroid-RPE (OU), male DB rabbits, Group 1, Day 1, […] single oral dose): 726 ng/g
- Cmax [9]: 3970 ng/g
- half-life [9]: 76.2 h
- half-life (male, Dutch Belted, rabbit, choroid-retinal pigment epithelium (choroid-RPE), po, […], Choroid-RPE (OU), male DB rabbits, Group 1, Day 1, […] single oral dose): 58.9 h
- Cmax (male, Dutch Belted, rabbit, choroid-retinal pigment epithelium (choroid-RPE), po, […], Choroid-RPE (OU), male DB rabbits, Group 2, Day 15, […] BID oral (15 mg/kg/day)): 2000 ng/g
- Cmax (male, Dutch Belted, rabbit, iris-ciliary body (ICB), po, 15 mg/kg, ICB (OU), male DB rabbits, Group 3, Day 15, 15 mg/kg/dose BID oral (30 mg/kg/day)): 2050 ng/g
- Cmax (male, Dutch Belted, rabbit, iris-ciliary body (ICB), po, […], ICB (OU), male DB rabbits, Group 1, Day 1, […] single oral dose): 435 ng/g
- Cmax (male, Dutch Belted, rabbit, iris-ciliary body (ICB), po, […], ICB (OU), male DB rabbits, Group 2, Day 15, […] BID oral (15 mg/kg/day)): 943 ng/g
- Cmax [10]: 910 ng/mL
- half-life [10]: 4.98 h
- AUC(0-t) (male, Dutch Belted, rabbit, plasma, po, 15 mg/kg, plasma, male DB rabbits, Group 3, Day 15, 15 mg/kg/dose BID oral (30 mg/kg/day), read-out: AUC0-12): 3620 ng·h/mL
- AUC(0-t) (male, Dutch Belted, rabbit, plasma, po, 15 mg/kg, plasma, male DB rabbits, Group 3, Day 15, 15 mg/kg/dose BID oral (30 mg/kg/day), read-out: AUC0-24): 4010 ng·h/mL
- AUC(0-t) (male, Dutch Belted, rabbit, plasma, po, 15 mg/kg, plasma, male DB rabbits, Group 3, Day 15, 15 mg/kg/dose BID oral (30 mg/kg/day), read-out: AUC0-240): 4390 ng·h/mL
- AUC(0-t) (male, Dutch Belted, rabbit, plasma, po, 15 mg/kg, plasma, male DB rabbits, Group 3, Day 15, 15 mg/kg/dose BID oral (30 mg/kg/day), read-out: AUC0-t): 4010 ng·h/mL
- Cmax [11]: 423 ng/mL
- half-life [11]: 6.01 h
- AUC(0-t) (male, Dutch Belted, rabbit, plasma, po, […], plasma, male DB rabbits, Group 1, Day 1, […] single oral dose, read-out: AUC0-12): 1450 ng·h/mL
- AUC(0-t) (male, Dutch Belted, rabbit, plasma, po, […], plasma, male DB rabbits, Group 1, Day 1, […] single oral dose, read-out: AUC0-24): 1560 ng·h/mL
- AUC(0-t) (male, Dutch Belted, rabbit, plasma, po, […], plasma, male DB rabbits, Group 1, Day 1, […] single oral dose, read-out: AUC0-240): 1680 ng·h/mL
- AUC(0-t) (male, Dutch Belted, rabbit, plasma, po, […], plasma, male DB rabbits, Group 1, Day 1, […] single oral dose, read-out: AUC0-t): 1560 ng·h/mL
- Cmax [12]: 440 ng/mL
- half-life [12]: 4.88 h
- AUC(0-t) (male, Dutch Belted, rabbit, plasma, po, […], plasma, male DB rabbits, Group 2, Day 15, […] BID oral (15 mg/kg/day), read-out: AUC0-12): 1910 ng·h/mL
- AUC(0-t) (male, Dutch Belted, rabbit, plasma, po, […], plasma, male DB rabbits, Group 2, Day 15, […] BID oral (15 mg/kg/day), read-out: AUC0-24): 2130 ng·h/mL
- AUC(0-t) (male, Dutch Belted, rabbit, plasma, po, […], plasma, male DB rabbits, Group 2, Day 15, […] BID oral (15 mg/kg/day), read-out: AUC0-240): 2370 ng·h/mL
- AUC(0-t) (male, Dutch Belted, rabbit, plasma, po, […], plasma, male DB rabbits, Group 2, Day 15, […] BID oral (15 mg/kg/day), read-out: AUC0-t): 2130 ng·h/mL
- concentration at 6 h (male, Dutch Belted, rabbit, retina, oral, […] BID, DB rabbits, Day 15, […] BID, read-out: Mean Retina Concentration): 97.9 ng/g
- concentration at 24 h (male, Dutch Belted, rabbit, retina, oral, […] BID, DB rabbits, Day 15, […] BID, 24 hr, read-out: Mean Retina Concentration): 44.3 ng/g
- concentration at 96 h (male, Dutch Belted, rabbit, retina, oral, […] BID, DB rabbits, Day 15, […] BID, 96 hr, read-out: Mean Retina Concentration): 13.9 ng/g
- concentration at 168 h (male, Dutch Belted, rabbit, retina, oral, […] BID, DB rabbits, Day 15, […] BID, 168 hr, read-out: Mean Retina Concentration): 10.7 ng/g
- concentration at 240 h (male, Dutch Belted, rabbit, retina, oral, […] BID, DB rabbits, Day 15, […] BID, 240 hr, read-out: Mean Retina Concentration): 7.18 ng/g
- concentration at 6 h (male, Dutch Belted, rabbit, retina, oral, […], DB rabbits, Day 1, […] single dose, read-out: Mean Retina Concentration): 27.5 ng/g
- concentration at 12 h (male, Dutch Belted, rabbit, retina, oral, […], DB rabbits, Day 1, […] single dose, 12 hr, read-out: Mean Retina Concentration): 16.5 ng/g
- Cmax (male, Dutch Belted, rabbit, retina, po, 15 mg/kg, Retina (OU), male DB rabbits, Group 3, Day 15, 15 mg/kg/dose BID oral (30 mg/kg/day)): 1290 ng/g
- Cmax (male, Dutch Belted, rabbit, retina, po, […], Retina (OU), male DB rabbits, Group 1, Day 1, […] single oral dose): 188 ng/g
- Cmax (male, Dutch Belted, rabbit, retina, po, […], Retina (OU), male DB rabbits, Group 2, Day 15, […] BID oral (15 mg/kg/day)): 306 ng/g
- Ctrough [13]: 14.8 ng/mL
- DN AUC0-12 [13]: 194 (h*ng/mL)/(mg/kg/dose)
- DN AUC0-24 [13]: 208 (h*ng/mL)/(mg/kg/day)
- DN Cmax [13]: 56.4 (ng/mL)/(mg/kg/day)
- Ctrough [14]: 29.6 ng/mL
- DN AUC0-12 [14]: 255 (h*ng/mL)/(mg/kg/dose)
- DN AUC0-24 [14]: 284 (h*ng/mL)/(mg/kg/day)
- DN Cmax [14]: 58.6 (ng/mL)/(mg/kg/day)
- Ctrough [15]: 54.3 ng/mL
- DN AUC0-12 [15]: 242 (h*ng/mL)/(mg/kg/dose)
- DN AUC0-24 [15]: 267 (h*ng/mL)/(mg/kg/day)
- DN Cmax [15]: 60.7 (ng/mL)/(mg/kg/day)
- Tolerability, clinical observations (rabbits, single oral […] and BID ≥15 mg/kg/day): well tolerated
